Measured values: patent publication US6251882A, “Alkyl ketones as potent anti-cancer agents” (Parker Hughes Institute, priority 1999, dated 2001)
Where a name gives a salt, the structure may show the parent alone. Residues, ends and D or L forms follow the SMILES beside them. *: point of attachment. Farnesyl = CC(C)=CCC/C(C)=C/CC/C(C)=C/C*; Boc = CC(C)(C)OC(=O)*; CH2Cl = ClC*

Experiments:
Nalm-6 (B-lineage ALL) = experiment: MTT cytotoxicity assay, Nalm-6; assay type: cell-based; conditions: Homo sapiens, 24-36 hours at 37° C., 0.1 to 250 μM
Procedure: (§1) Cytotoxicity of various compounds against tumor cells was performed using the MTT (3-[4,5-[…]]-2,5-diphenyl tetrazolium bromide) assay (Boehringer Mannheim Corp., Indianapolis, Ind.). Unless otherwise specified, all cell lines were obtained from the American Type Culture Collection (ATCC). Briefly, exponentially growing cells were seeded into a 96-well plate at a density of 2.5×10^4 cells/well and incubated for 36 hours at 37° C. prior to drug exposure. On the day of treatment, culture medium was carefully aspirated from the wells and replaced with fresh medium containing the indicated compound at concentrations ranging from 0.1 to 250 μM. Triplicate wells were used for each treatment.
(§2) Human leukemic cell lines (NALM-6, MOLT-3) glioblastoma cells (U373) and human breast tumor cell lines (BT20 and MDA-MB-231) were obtained from the American Type Culture Collection and maintained as a continuous cell line in Dulbecco's modified Eagles's medium supplemented with 10% fetal bovine serum and antibiotics.
(§3) The cells were incubated with the various compounds for 24-36 hours at 37° C. in a humidified 5% CO2 atmosphere. To each well, 10 μl of MTT (0.5 mg/ml final concentration) was added and the plates were incubated at 37° C. for 4 hours to allow MTT to form formazan crystals by reacting with metabolically active cells. The formazan crystals were solubilized overnight at 37° C. in a solution containing 10% SDS in 0.01 M HCl. The absorbence of each well was measured in a microplate reader (Labsystems) at 540 nm and a reference wavelength of […]. To translate the OD540 values into the number of live cells in each well, the OD540 values were compared to those on standard OD540 --versus--cell number curves generated for each cell line. The percent survival was calculated using the formula: [formula]
(§4) The IC50 values were calculated by non-linear regression analysis and are shown below in Tables 1-6.

Molt-3 (T-lineage ALL) = experiment: MTT cytotoxicity assay, Molt-3; assay type: cell-based, human; conditions: Homo sapiens, MOLT-3, MTT, 24-36 hours at 37° C., 0.1 to 250 μM
Procedure: as §1, §2, §3, §4

BT-20 (breast cancer) = experiment: MTT cytotoxicity assay, BT-20; assay type: cell-based; conditions: Homo sapiens, 24-36 hours at 37° C., 0.1 to 250 μM
Procedure: as §1, §2, §3, §4

PC-3 (prostate cancer) = experiment: MTT cytotoxicity assay, PC-3; assay type: cell-based; conditions: 24-36 hours at 37° C., 0.1 to 250 μM
Procedure: as §1, §3, §4

U-373 (glioblastoma) = experiment: MTT cytotoxicity assay, U-373; assay type: cell-based; conditions: Homo sapiens, U373 MG, 24-36 hours at 37° C., 0.1 to 250 μM
Procedure: as §1, §2, §3, §4

SMILES	IC50 (Nalm-6 (B-lineage ALL)) [µM]	IC50 (Molt-3 (T-lineage ALL)) [µM]	IC50 (BT-20 (breast cancer)) [µM]	IC50 (PC-3 (prostate cancer)) [µM]	IC50 (U-373 (glioblastoma)) [µM]
CC(C)=CCC/C(C)=C/CC/C(C)=C/CSC[C@H](NC(=O)OC(C)(C)C)C(=O)C=[N+]=[N-] [HI-82, N-Boc-S-farnesyl-Cys diazomethyl ketone]	49.8	50.1	> 100	> 100	> 100
CC(C)=CCC/C(C)=C/CC/C(C)=C/CSCCC(=O)C=[N+]=[N-] [HI-83, S-trans-trans-Farnesyl-mercaptoethyl diazomethyl ketone]	53.5	6.8	> 100	> 100	> 100
CC(C)=CCC/C(C)=C/CC/C(C)=C/CSCC(=O)C=[N+]=[N-] [HI-84, S-trans-trans-Farnesyl-mercaptomethyl diazomethyl ketone]	> 100	60.3	> 100	> 100	> 100
CC(=O)N[C@@H](CSC/C=C(\C)CCC=C(C)C)C(=O)C=[N+]=[N-] [HI-122, N-Ac-S-trans-geranyl-Cys diazomethyl ketone]	> 100	> 100	> 100	> 100	> 100
CC(=O)N[C@@H](CSCC=C(C)C)C(=O)C=[N+]=[N-] [HI-123, N-Ac-S-(3-methyl-2-butenyl)-Cys diazomethyl ketone]	> 100	> 100	> 100	> 100	> 100
CC(C)=CCC/C(C)=C/CC/C(C)=C/CSC[C@H](NC(=O)OC(C)(C)C)C(=O)CCl [HI-124, N-Boc-S-farnesyl-Cys chloromethyl ketone]	10.7	7.7	> 100	> 100	> 100
CC(C)=CCC/C(C)=C/CC/C(C)=C/CSCCC(=O)CCl [HI-125, S-trans-trans-Farnesyl-2-mercaptoethyl chloromethyl ketone]	40.7	35.5	> 100	> 100	> 100
CC(C)=CCC/C(C)=C/CC/C(C)=C/CSCC(=O)CCl [HI-126, S-trans-trans-Farnesyl-mercaptomethyl chloromethyl ketone]	84.3	> 100	> 100	> 100	> 100
CC(=O)N[C@@H](CSC/C=C(\C)CCC=C(C)C)C(=O)CCl [HI-127, N-Ac-S-trans-geranyl-Cys chloromethyl ketone]	> 100	> 100	> 100	> 100	> 100
CC(=O)N[C@@H](CSCC=C(C)C)C(=O)CCl [HI-128, N-Ac-S-(3-methyl-2-butenyl)-Cys chloromethyl ketone]	12.6	7.9	25.7	47.8	> 100
CCCCCCCCCCCCSC[C@H](NC(=O)OC(C)(C)C)C(=O)CCl [HI-129, N-Boc-S-dodecyl-Cys chloromethyl ketone]	15.1	15.5	48.9	64.6	> 100
CC(C)=CCC/C(C)=C/CC/C(C)=C/CSC[C@H](NC(=O)CNC(=O)OC(C)(C)C)C(=O)CCl [HI-130, N-Boc-Gly-S-trans-trans-farnesyl-Cys chloromethyl ketone] (Boc-Gly-Cys(Farnesyl)-CH2Cl)	12.9	17.5	> 100	> 100	71.3
CCCCCCCCCCCCSC[C@H](N)C(=O)CCl [HI-252, S-Dodecyl-Cys chloromethyl ketone hydrochloride]	17.7	12.5	> 100	> 100	> 100
CCCCCCCCCCCCOC[C@H](NC(=O)OC(C)(C)C)C(=O)CCl [HI-266, N-Boc-O-dodecyl serine chloromethyl ketone]	64.5		49.9		37.1
CCCCCCCCCCCCSC[C@H](NC(C)=O)C(=O)N(C)OC [HI-267, N-Ac-S-dodecyl-Cys-N(OCH3)-CH3]	50.1		> 100	> 100	> 100
CCCCCCCCCCCCSC[C@H](NC(=O)c1cccc(N(C)C)c1)C(=O)CCl [HI-268, N-3-Dimethylaminobenzoyl-S-dodecyl-cysteine chloromethyl ketone]	96.1		> 100	> 100	> 100

SMILES	IC50 (Nalm-6 (B-lineage ALL)) [µM]	IC50 (Molt-3 (T-lineage ALL)) [µM]	IC50 (BT-20 (breast cancer)) [µM]	IC50 (PC-3 (prostate cancer)) [µM]	IC50 (U-373 (glioblastoma)) [µM]
CCCCCCCCCCCCSC[C@H](NC(C)=O)C(=O)CSc1ccccc1 [HI-269, N-Ac-S-dodecyl-Cys-CH2 -SPh]	> 100	> 100	> 100	> 100	> 100
CCCCCCCCCCCCSC[C@H](NC(C)=O)C(=O)CSCCC(=O)O [HI-273, N-Ac-S-dodecyl-Cys-CH2 -S-CH2 CH2 CO2 H]	44.4	50.3	20.1	> 100	> 100
CCCCCCCCCCCCSC[C@@H](C=O)NC(C)=O [HI-274, N-Ac-S-dodecyl-Cys-H]	12.6	13.1	22.8		> 100
CCCCCCCCCCCCSC[C@H](NC(C)=O)C(=O)CSc1ccc2ccccc2c1 [HI-302, N-Ac-S-dodecyl-Cys-CH2 -S-2-naphthyl]	> 100	> 100	> 100	> 100	> 100
CCCCCCCCCCCCSC[C@H](NC(=O)OCC)C(=O)CCl [HI-319]	77.6	84.2	> 100	> 100	> 100
CCCCCCCCCCCCSC[C@H](NC(=O)OCc1ccccc1)C(=O)CCl [HI-320, N-Benzyloxycarbonyl-S-dodecylcysteine chloromethyl ketone]	13.5	> 100	> 100	> 100	> 100
CCCCCCCCCCCCSC[C@H](NC(C)=O)C(=O)C=[N+]=[N-] [HI-348, N-Ac-S-dodecyl-Cys diazomethyl ketone]	15.4	22.9	97.9	> 100	> 100
CC(=O)N[C@@H](CSC(C)(C)C)C(=O)CCl [HI-349, N-Ac-S-t-butyl-cysteine chloromethyl ketone]	71	71.9	> 100	> 100	> 100
CC(=O)N[C@@H](CSC(c1ccccc1)(c1ccccc1)c1ccccc1)C(=O)CCl [HI-350, N-Ac-S-trityl-cysteine chloromethyl ketone]	10	26.4	88.8	52.2	87.1
COc1ccc(CSC[C@H](NC(C)=O)C(=O)CCl)cc1 [HI-351, N-Ac-S-4-methoxybenzyl-cysteine chloromethyl ketone]	60.2	4.75	73.1	43.8	45.6
CCCCCCCCCCCCSC[C@H](NC(C)=O)C(=O)CSC(c1ccccc1)(c1ccccc1)c1ccccc1 [HI-365]	93.1	97.3	> 100	> 100	> 100
CC(=O)N[C@@H](CSC/C=C(\C)CC/C=C(\C)CCC=C(C)C)C(=O)C=[N+]=[N-] [HI-367, N-Ac-S-trans-trans-farnesyl-Cys diazomethyl ketone]	30.3	32.2	> 100	> 100	> 100
CC(=O)N[C@@H](CSC/C=C(\C)CC/C=C(\C)CCC=C(C)C)C(=O)CCl [HI-368, N-Ac-S-trans-trans-farnesyl-Cys chloromethyl ketone]	3	1.4	55.8	26.8	61.3
CC(=O)N[C@@H](CSC(=O)OCc1ccccc1)C(=O)CCl [HI-389, N-Ac-S-benzyloxycarbonyl-cysteine chloromethyl ketone]	1.2	3.5	49.3	23.4	54.4
CC(=O)N[C@@H](CSCc1ccc2ccccc2c1)C(=O)CCl [HI-392, N-Ac-S-2-naphthylmethyl-cysteine chloromethyl ketone]	2.6	2.9	40.4	36.6	41.8
